{"source": "patent USRE47589E1", "about": "“Phosphoramidate compounds and methods of use” (NuCana plc, priority 2003, dated 2019)", "key": {"HIV-1": {"system": "HIV-1", "conditions": "cited from earlier work; for EC50: d4T phosphoramidates, prior art, read-out: 50% effective doses vs HIV-1"}, "[1]": {"system": "human colon cancer cell line (HT115)", "assay": "MTT cytotoxicity assay, colon cancer cell line", "assay_type": "cell-based", "conditions": "for EC50: Homo sapiens, HT115, read-out: EC50/μM Colon HT115, MTT assay, compounds added to cells over 1 to 3 days; for concentration found to be active in vitro, colon cell line: same colon cell line (HT115)", "procedure": "(§1) The compounds include those whose preparations are described above and compounds made by preparative methods corresponding to the methods described above.\n(§2) Compounds were diluted over a range of concentrations and added to cells over 1 to 3 days. The cytotoxity was determined using a MTT assay at the end of each experiment."}, "prostrate PC3 xenograft": {"system": "prostrate PC3 xenograft", "assay": "Mouse xenograft of human cancer, prostate tumour volume", "assay_type": "in vivo", "conditions": "daily dosing, CPF31 at 5 and 10 μM (3 and 6 μg/ml), gemcitabine at highest non-toxic concentration", "method": "(§3) Mice were dosed daily at a range of concentrations (0.01-10 μM) and tumour volume assessed versus control."}, "[2]": {"assay": "Toxicity in mouse xenograft model (body mass loss, incident-free survival)", "method": "as §3\n(§4) Kaplan-Meier statistics were computed regarding incident-free survival."}, "colon HT115 xenograft": {"system": "colon HT115 xenograft", "assay": "Mouse xenograft of human cancer, colon tumour volume", "assay_type": "in vivo", "conditions": "for reducing colon tumour volume relative to control: daily dosing, CPF31 at 5 and 10 μM (3 and 6 μg/ml), gemcitabine at highest non-toxic concentration", "method": "as §3"}, "[3]": {"system": "human breast cancer cell line (MDA MB 231)", "assay": "MTT cytotoxicity assay, breast cancer cell line", "assay_type": "cell-based", "conditions": "for EC50: Homo sapiens, MDA-MB-231, read-out: EC50/μM Breast MDA MB231", "procedure": "as §1, §2"}, "[4]": {"system": "human prostate cancer cell line (PC-3)", "assay": "MTT cytotoxicity assay, prostate cancer cell line", "assay_type": "cell-based", "conditions": "for EC50: Homo sapiens, read-out: EC50/μM Prostate PC-3", "procedure": "as §1, §2"}, "[5]": {"conditions": "in vivo, 13 day", "method": "as §3, §4"}}, "note": "Entries after “also recorded” stand apart in the source; their conditions may differ."}
{"smiles": "COC(=O)C(C)NP(=O)(OCC1C=CC(n2cc(C)c(=O)[nH]c2=O)O1)Oc1ccccc1", "note": "(stereo not shown) [(9)]", "values": [{"measurement": "EC50", "setting": "HIV-1", "value": 0.075, "unit": "µM"}]}
{"smiles": "Cc1cn(C2C=CC(COP(=O)(NC(C)C(=O)OCc3ccccc3)Oc3ccccc3)O2)c(=O)[nH]c1=O", "note": "(stereo not shown) [(10)]", "values": [{"measurement": "potency boost of (10) over (9)", "setting": "HIV-1; equivalent phosphoramidates of d4T, McGuigan et al, AVCC, 1998", "value": "~4", "unit": "fold"}]}
{"smiles": "COC(=O)C(C)(C)NP(=O)(OCC1C=CC(n2cc(C)c(=O)[nH]c2=O)O1)Oc1ccccc1", "note": "(stereo not shown) [(12)]", "values": [{"measurement": "EC50", "setting": "HIV-1", "value": 0.29, "unit": "µM"}]}
{"smiles": "COC(=O)C(C)NP(=O)(OCC1C=CC(n2cc(C)c(=O)[nH]c2=O)O1)Oc1ccc(C(F)(F)F)cc1", "note": "(stereo not shown) [(13)]", "values": [{"measurement": "EC50", "setting": "HIV-1", "value": 0.01, "unit": "µM"}]}
{"smiles": "C[C@H](NP(=O)(OC[C@H]1O[C@@H](n2ccc(N)nc2=O)C(F)(F)C1O)Oc1ccccc1)C(=O)OCc1ccccc1", "note": "(stereo partly drawn) [Example 31, Gemcitabine-[phenyl-(benzoxy-L-alaninyl)]-phosphate]", "values": [{"measurement": "EC50", "setting": "[1]", "value": 5.7, "unit": "µM"}, {"measurement": "concentration found to be active in vitro, colon cell line", "setting": "[1]", "value": 5, "unit": "µM"}, {"measurement": "reducing prostate tumour volume relative to control", "setting": "prostrate PC3 xenograft", "value": "significantly effective"}, {"measurement": "animals showing serious toxicity (10% body mass loss), day 10", "setting": "[2]; 5 and 10 μM groups combined, day 10", "value": 3, "unit": "animals"}, {"measurement": "animals showing serious toxicity (10% body mass loss), day 11, collectively", "setting": "[2]; 5 and 10 μM groups combined, day 11", "value": 1, "unit": "animals"}, {"measurement": "animals showing serious toxicity (10% body mass loss), day 13", "setting": "[2]; 5 and 10 μM groups combined, day 13", "value": 1, "unit": "animals"}, {"measurement": "toxicity compared with gemcitabine (Gemzar, GMZ)", "setting": "[2]; mouse xenograft, weight loss based, Kaplan-Meier / Cox analysis, listed as CPF31", "value": "significantly less toxic; also recorded: substantially lower toxicity; also recorded: far less toxic"}, {"measurement": "activity in reducing colon tumour volume in vivo at 5 μM (FIG. 4)", "setting": "colon HT115 xenograft; 5 μM, day 24, versus Gemzar", "value": "greater activity"}, {"measurement": "reducing colon tumour volume relative to control", "setting": "colon HT115 xenograft", "value": "significantly effective"}, {"measurement": "EC50", "setting": "[3]", "value": 42.6, "unit": "µM"}, {"measurement": "EC50", "setting": "[4]", "value": 0.22, "unit": "µM"}]}
{"smiles": "CC(C)(NP(=O)(OC[C@H]1O[C@@H](n2cc(/C=C/Br)c(=O)[nH]c2=O)CC1O)Oc1ccc([N+](=O)[O-])cc1)C(=O)OCc1ccccc1", "note": "(stereo partly drawn) [Example 47, (E)-5-(2-bromovinyl)-2′-deoxyuridine-5′-[4-nitrophenyl-(benzoxy-α,α-dimethylglycinyl)]-phosphate]", "values": [{"measurement": "EC50", "setting": "[1]", "value": 16.7, "unit": "µM"}, {"measurement": "EC50", "setting": "[3]", "value": 4.5, "unit": "µM"}, {"measurement": "EC50", "setting": "[4]", "value": 27.2, "unit": "µM"}]}
{"smiles": "CC(C)(NP(=O)(OCC1OC(n2cc(/C=C/Br)c(=O)[nH]c2=O)CC1O)Oc1ccc(C(F)(F)F)cc1)C(=O)OCc1ccccc1", "note": "(stereo not drawn) [Example 48, (E)-5-(2-bromovinyl)-2′-deoxyuridine-5′-[para-(trifluoromethyl)phenyl-(benzoxy-α,α-dimethylglycinyl)]-phosphate]", "values": [{"measurement": "EC50", "setting": "[1]", "value": 7, "unit": "µM"}, {"measurement": "times more potent than (7), colon cancer cell line HT115", "setting": "[1]; ratio of 50% growth inhibition concentrations versus methyl ester (7)", "value": 35, "unit": "fold"}, {"measurement": "EC50", "setting": "[3]", "value": 1.3, "unit": "µM"}, {"measurement": "fold more active than (7), breast cancer", "setting": "[3]; ratio versus methyl ester (7)", "value": 60, "unit": "fold"}, {"measurement": "EC50", "setting": "[4]", "value": 0.61, "unit": "µM"}, {"measurement": "times more potent than (7), prostate cancer cell line PC-3", "setting": "[4]; ratio versus methyl ester (7)", "value": 254, "unit": "fold"}]}
{"smiles": "Nc1ccn([C@@H]2O[C@H](CO)[C@@H](O)C2(F)F)c(=O)n1", "note": "[Example G, gemcitabine, reference compound]", "values": [{"measurement": "EC50", "setting": "[1]", "value": 606, "unit": "µM"}, {"measurement": "concentration found to be active in vitro, colon cell line", "setting": "[1]", "value": 600, "unit": "µM"}, {"measurement": "reducing prostate tumour volume relative to control", "setting": "prostrate PC3 xenograft", "value": "not effective"}, {"measurement": "toxic concentration in mouse xenograft (FIG. 1)", "setting": "[5]", "value": "above 1 μM"}, {"measurement": "reducing colon tumour volume relative to control", "setting": "colon HT115 xenograft", "value": "not effective"}, {"measurement": "EC50", "setting": "[3]", "value": 2.8, "unit": "µM"}, {"measurement": "EC50", "setting": "[4]", "value": 3.12, "unit": "µM"}]}
